# Peptide text beside a SMILES is read from it.
# Key:
# Assay type in all cases: cell-based
# [1] = tested on: Bifidobacterium longum spp. infantis ATCC 15697; conditions: ATCC 15697, 18 h
# Method: (§1) The bioactivity of the intestinal peptide extracts was determined via the microdilution method. Antimicrobial activity was screened with E. coli and S. aureus as representatives of common infant pathogens responsible for infectious disease, and growth-promoting activity was screened with B. infantis, one of the ideal colonizers of the infant gut. For the antimicrobial assays, colonies of bacteria were selected and inoculated in 2 mL of MHB and incubated at 37 °C for 24 h. The inoculum was diluted to 2 × 10^5 CFU/mL with MHB. For the growth-promoting assays, 100 µL of stock bacteria were inoculated in 10 mL of reinforced clostridial broth supplemented with 0.1% ascorbic acid and incubated under anaerobic conditions (BD BBL™ GasPak™) at 37 °C for 24 h. Optical density was measured at 600 nm, and the inoculum was diluted to an optical density of 0.05 with reinforced clostridial broth.
# (§2) The intestinal peptide extracts were serially diluted with PBS to concentrations of 1×, 1/2×, 1/4×, 1/8×, 1/16×, 1/32×, 1/64×, and 1/128×. In a 96-well plate, 50 µL of each dilution was incubated with 50 µL of inoculum in duplicate, along with a negative control of 50 µL of inoculum with 50 µL of pure PBS and a sterility test of 50 µL of peptide with 50 µL of broth. Growth was determined by optical density readings at 600 nm (OD600) taken at 0 h (T0) and 18 h (T18). The following equation was used to determine percent inhibition or promotion of bacterial growth:
# (§3) Candidate peptides were synthesized and dissolved in sterile nanopure water. Antimicrobial and growth-promoting assays were carried out as described above with serial dilutions ranging from […] to 15.6 μg/mL. Minimum inhibitory concentration (MIC) was determined by the concentration at which all visible growth was inhibited.
# [2] = tested on: Escherichia coli BL21 (DE3); conditions: BL21, 18 h
# Method: as §1, §2, §3
# [3] = tested on: Staphylococcus aureus ATCC 12600; conditions: ATCC 12600, 18 h
# Method: as §1, §2, §3
B. infantis MIC [1],E. coli MIC [2],S. aureus MIC [3],Compound
>3000 µg/mL,>3000 µg/mL,>3000 µg/mL,CC[C@H](C)[C@H](NC(=O)[C@@H]1CCCN1C(=O)[C@H](CCC(N)=O)NC(=O)[C@@H]1CCCN1C(=O)[C@@H](NC(=O)[C@H](CCC(N)=O)NC(=O)[C@H](CCC(N)=O)NC(=O)[C@H](CCSC)NC(=O)[C@H](CC(C)C)NC(=O)[C@@H]1CCCN1C(=O)[C@H](CCC(N)=O)NC(=O)[C@H](CC(C)C)NC(=O)[C@H](CC(C)C)NC(=O)[C@@H]1CCCN1C(=O)[C@H](CC(C)C)NC(=O)[C@@H]1CCCN1C(=O)[C@H](CC(C)C)NC(=O)[C@@H](N)Cc1c[nH]cn1)C(C)C)C(=O)O [Peptide 1] (H-HLPLPLLQPLMQQVPQPI-OH)
>3000 µg/mL,>3000 µg/mL,>3000 µg/mL,CC[C@H](C)[C@H](NC(=O)[C@H](CCC(N)=O)NC(=O)[C@H](Cc1c[nH]cn1)NC(=O)[C@@H](NC(=O)[C@@H]1CCCN1C(=O)[C@H](CC(N)=O)NC(=O)[C@H](CC(C)C)NC(=O)[C@@H](N)CC(C)C)[C@@H](C)O)C(=O)N[C@@H](Cc1ccc(O)cc1)C(=O)N1CCC[C@H]1C(=O)N[C@H](C(=O)N[C@H](C(=O)N[C@@H](CCC(N)=O)C(=O)N1CCC[C@H]1C(=O)N[C@@H](CC(C)C)C(=O)N[C@@H](C)C(=O)N1CCC[C@H]1C(=O)N[C@H](C(=O)N[C@@H](Cc1c[nH]cn1)C(=O)N[C@@H](CC(N)=O)C(=O)N1CCC[C@H]1C(=O)N[C@H](C(=O)N[C@@H](CO)C(=O)O)[C@@H](C)CC)C(C)C)[C@@H](C)O)C(C)C [Peptide 2] (H-LLNPTHQIYPVTQPLAPVHNPIS-OH)
>3000 µg/mL,>3000 µg/mL,>3000 µg/mL,CC[C@H](C)[C@H](NC(=O)[C@H](CCC(N)=O)NC(=O)[C@@H](N)Cc1c[nH]cn1)C(=O)N[C@@H](Cc1ccc(O)cc1)C(=O)N1CCC[C@H]1C(=O)N[C@H](C(=O)N[C@H](C(=O)N[C@@H](CCC(N)=O)C(=O)N1CCC[C@H]1C(=O)N[C@@H](CC(C)C)C(=O)O)[C@@H](C)O)C(C)C [Peptide 3] (H-HQIYPVTQPL-OH; N-terminus and C-terminus assumed)
>3000 µg/mL,3000 µg/mL,3000 µg/mL,CC[C@H](C)[C@H](NC(=O)[C@@H]1CCCN1C(=O)[C@H](CC(N)=O)NC(=O)[C@H](Cc1c[nH]cn1)NC(=O)[C@@H](NC(=O)[C@@H]1CCCN1C(=O)[C@H](C)NC(=O)[C@@H](N)CC(C)C)C(C)C)C(=O)O [Peptide 4] (H-LAPVHNPI-OH)
>3000 µg/mL,2500 µg/mL,2500 µg/mL,CC[C@H](C)[C@H](NC(=O)[C@@H]1CCCN1C(=O)[C@@H](N)CCC(=O)O)C(=O)N1CCC[C@H]1C(=O)N[C@@H](CC(C)C)C(=O)N[C@@H](CCC(=O)O)C(=O)N[C@@H](CO)C(=O)N[C@@H](CCCNC(=N)N)C(=O)N[C@@H](CCC(=O)O)C(=O)N[C@@H](CCC(=O)O)C(=O)O [Peptide 5] (H-EPIPLESREE-OH)
>3000 µg/mL,>3000 µg/mL,>3000 µg/mL,CC[C@H](C)[C@H](NC(=O)[C@H](CCC(N)=O)NC(=O)[C@H](C)NC(=O)[C@H](Cc1c[nH]cn1)NC(=O)[C@@H]1CCCN1C(=O)[C@H](CCCNC(=N)N)NC(=O)[C@@H](NC(=O)[C@@H](NC(=O)[C@H](C)NC(=O)[C@@H]1CCCN1C(=O)[C@H](CC(N)=O)NC(=O)[C@H](C)NC(=O)[C@@H](N)Cc1ccc(O)cc1)C(C)C)C(C)C)C(=O)N1CCC[C@H]1C(=O)N[C@@H](CCC(N)=O)C(=O)N[C@@H](CCCNC(=N)N)C(=O)O [Peptide 6] (H-YANPAVVRPHAQIPQR-OH; N-terminus and C-terminus assumed)
>3000 µg/mL,3000 µg/mL,3000 µg/mL,CC(C)C[C@H](NC(=O)[C@H](CC(N)=O)NC(=O)[C@@H]1CCCN1C(=O)[C@@H](N)CCCNC(=N)N)C(=O)N[C@@H](Cc1c[nH]cn1)C(=O)N1CCC[C@H]1C(=O)N[C@@H](CO)C(=O)O [Peptide 7] (H-RPNLHPS-OH)
>3000 µg/mL,3000 µg/mL,3000 µg/mL,NCCCC[C@H](NC(=O)CNC(=O)[C@H](Cc1ccccc1)NC(=O)[C@H](CCCCN)NC(=O)[C@@H](N)CCC(=O)O)C(=O)N[C@@H](CC(=O)O)C(=O)N[C@@H](CCCCN)C(=O)N[C@@H](CO)C(=O)N1CCC[C@H]1C(=O)N[C@@H](CCCCN)C(=O)N[C@@H](Cc1ccccc1)C(=O)N[C@@H](CCC(N)=O)C(=O)O [Peptide 8] (H-EKFGKDKSPKFQ-OH)
>3000 µg/mL,3000 µg/mL,3000 µg/mL,CSCC[C@H](NC(=O)[C@@H](N)CC(=O)O)C(=O)N[C@@H](CC(C)C)C(=O)N[C@H](C(=O)N[C@H](C(=O)N[C@@H](CC(=O)O)C(=O)N1CCC[C@H]1C(=O)N[C@@H](CCCCN)C(=O)O)C(C)C)C(C)C [Peptide 9] (H-DMLVVDPK-OH; N-terminus and C-terminus assumed)
>3000 µg/mL,>3000 µg/mL,>3000 µg/mL,CC[C@H](C)[C@H](NC(=O)[C@@H](NC(=O)[C@@H]1CCCN1C(=O)[C@H](CC(C)C)NC(=O)[C@H](C)NC(=O)[C@H](CO)NC(=O)[C@@H](NC(=O)[C@@H](N)CCSC)[C@@H](C)O)[C@@H](C)CC)C(=O)N[C@@H](CCC(N)=O)C(=O)N[C@@H](CCCCN)C(=O)O [Peptide 10] (H-MTSALPIIQK-OH)
>3000 µg/mL,3000 µg/mL,3000 µg/mL,CC(C)C[C@H](NC(=O)[C@H](CC(=O)O)NC(=O)[C@H](CCCCN)NC(=O)[C@@H](N)Cc1ccccc1)C(=O)NCC(=O)N[C@@H](CCC(=O)O)C(=O)N[C@@H](CCC(=O)O)C(=O)N[C@@H](CC(N)=O)C(=O)N[C@@H](Cc1ccccc1)C(=O)N[C@@H](CCCCN)C(=O)O [Peptide 11] (H-FKDLGEENFK-OH)

# From paper PMC7956819, “Peptides from the Intestinal Tract of Breast Milk-Fed Infants Have Antimicrobial and Bifidogenic Activity” (International Journal of Molecular Sciences, 2021)
